From ChEMBL document CHEMBL1201862, “PubChem BioAssay data set” (2004)
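Where inhibition never reached the appropriate level, the endpoint shown equals the highest concentration tested. Otherwise, values were interpolated linearly from a five-concentration, 48-hour dose response in 96-well plates. GI50 is the concentration that inhibits growth by half.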 Activity calls are given as the source filed them. Rule as the data show it: active = GI50 up to about 1.1 µM and inactive = higher.

Key:
Assay in all cases: growth of human tumour cells (NCI), 48 h
[1] = system: SF-295
[2] = system: OVCAR-8
[3] = system: NCI-H460
[4] = system: OVCAR-4
[5] = system: SNB-75
[6] = system: KM12
[7] = system: ACHN
[8] = system: U-251
[9] = system: HCT-116
[10] = system: UACC-257
[11] = system: PC-3
[12] = system: MCF7
[13] = system: MOLT-4
[14] = system: SR
[15] = system: SK-MEL-28
[16] = system: UO-31
[17] = system: K562
[18] = system: SW-620
[19] = system: M14

Row | SMILES | GI50 [1] | GI50 [2] | GI50 [3] | GI50 [4] | GI50 [5] | GI50 [6] | GI50 [7] | GI50 [8] | GI50 [9] | GI50 [10] | GI50 [11] | GI50 [12] | GI50 [13] | GI50 [14] | GI50 [15] | GI50 [16] | GI50 [17] | GI50 [18] | GI50 [19]
1 | CC1=CC(=O)[C@@H](O)[C@]2(C)[C@H]3[C@@]4(O)OC[C@]35[C@H]([C@@H](C)[C@H]4O)[C@@H](OC(=O)C(C)(C)CO)C(=O)O[C@@H]5C[C@@H]12 | 0.229 µM (active) | 0.19 µM (active) | 0.0568 µM (active) | 0.122 µM (active) | 0.045 µM (active) | < 0.0271 µM (active) | 0.208 µM (active) | 0.0281 µM (active) | < 0.0199 µM (active) | 0.118 µM (active) | 0.0698 µM (active) | < 0.0189 µM (active) | 0.0178 µM (active) | 0.0155 µM (active) | 0.0478 µM (active) | 0.316 µM (active) | 0.0123 µM (active) | 0.229 µM (active) | < 0.0431 µM (active)
2 | COc1cc(S(=O)(=O)Nc2nc(-c3ccc(N4C(=O)/C(=C/C=C/c5ccccc5)N=C4c4ccccc4)cc3)cs2)ccc1Cl | > 100 µM (inactive) | > 100 µM (inactive) | > 100 µM (inactive) | > 100 µM (inactive) | 93.1 µM (inactive) | > 100 µM (inactive) | > 100 µM (inactive) | 53.1 µM (inactive) | 78.9 µM (inactive) | > 100 µM (inactive) | > 100 µM (inactive) | 43 µM (inactive) | 69 µM (inactive) | 58.3 µM (inactive) | 81.3 µM (inactive) | > 100 µM (inactive) | 72.3 µM (inactive) | > 100 µM (inactive) | > 100 µM (inactive)
3 | Nc1nc(I)nc2c1ncn2C1OC(COS(N)(=O)=O)C(O)C1O (stereo unspecified) | 0.0393 µM (active) | < 0.01 µM (active) | 0.0126 µM (active) | < 0.01 µM (active) | < 0.01 µM (active) | < 0.01 µM (active) | < 0.0117 µM (active) | < 0.01 µM (active) | < 0.01 µM (active) | 0.0163 µM (active) | < 0.01 µM (active) | < 0.01 µM (active) | < 0.01 µM (active) | < 0.01 µM (active) | < 0.01 µM (active) | 0.0187 µM (active) | < 0.01 µM (active) | 0.0235 µM (active) | < 0.0104 µM (active)
4 | O=C1Nc2c(Cl)cc(Cl)cc2C1=O | 17.1 µM (inactive) | 16.9 µM (inactive) | 21 µM (inactive) | 17.8 µM (inactive) | 6.03 µM (inactive) | 30.5 µM (inactive) | 34.2 µM (inactive) | 21.2 µM (inactive) | 19.3 µM (inactive) | 18.6 µM (inactive) | 24.3 µM (inactive) | 18.5 µM (inactive) | 18 µM (inactive) | 12.2 µM (inactive) | 17.7 µM (inactive) | 19.3 µM (inactive) | 29.2 µM (inactive) | 18.5 µM (inactive) | 19.6 µM (inactive)
5 | COc1ccccc1C1C2=C(COC2=O)OC(C)(C)Oc2cc3c(cc21)OCO3 (stereo unspecified) | 2.67 µM (inactive) | 5.12 µM (inactive) | 3.6 µM (inactive) | 10.3 µM (inactive) | 3.59 µM (inactive) | 1.11 µM (active) | 7.91 µM (inactive) | 3.85 µM (inactive) | 3.75 µM (inactive) | 6.81 µM (inactive) | 2.19 µM (inactive) | 3.15 µM (inactive) | 3.82 µM (inactive) | 3.44 µM (inactive) | 7.28 µM (inactive) | 10 µM (inactive) | 1.34 µM (inactive) | 3.67 µM (inactive) | 3.18 µM (inactive)
6 | N=C(N)SCc1ccc2c(c1)S(=O)(=O)c1ccccc1O2 | 21.2 µM (inactive) | 30.1 µM (inactive) | 19.6 µM (inactive) | 22.3 µM (inactive) | 14.6 µM (inactive) | 16.9 µM (inactive) | 15.8 µM (inactive) | 18.1 µM (inactive) | 22 µM (inactive) | 16.3 µM (inactive) | 17.7 µM (inactive) | 14.5 µM (inactive) | 19.1 µM (inactive) | 23 µM (inactive) | 16.4 µM (inactive) | 15.2 µM (inactive) | 26.7 µM (inactive) | 17.8 µM (inactive) | 20.5 µM (inactive)
7 | Cc1ccc2nc(CN3CCCC(O)C3)cc(=O)n2c1 (stereo unspecified) | > 100 µM (inactive) | > 100 µM (inactive) | > 100 µM (inactive) | > 100 µM (inactive) | > 100 µM (inactive) | > 100 µM (inactive) | > 100 µM (inactive) | > 100 µM (inactive) | > 100 µM (inactive) | > 100 µM (inactive) | > 100 µM (inactive) | > 100 µM (inactive) | > 100 µM (inactive) | > 100 µM (inactive) | > 100 µM (inactive) | > 100 µM (inactive) | > 100 µM (inactive) | > 100 µM (inactive) | > 100 µM (inactive)
8 | O=C(CC(O)(C(F)(F)F)C(F)(F)F)c1cc(CC(=O)C(O)(C(F)(F)F)C(F)(F)F)cc(CC(=O)C(O)(C(F)(F)F)C(F)(F)F)c1 | 1.05 µM (active) | 1.95 µM (inactive) | 0.454 µM (active) | 1.77 µM (inactive) | 1.91 µM (inactive) | 0.512 µM (active) | 0.802 µM (active) | 1.54 µM (inactive) | 0.76 µM (active) | 1.95 µM (inactive) | 0.78 µM (active) | 1.86 µM (inactive) | 4.47 µM (inactive) | 6.78 µM (inactive) | 1.64 µM (inactive) | 1.25 µM (inactive) | > 10 µM (inactive) | 2.06 µM (inactive) | 2.58 µM (inactive)
9 | CC(=O)NS(=O)(=O)c1ccc(NC(=O)c2c3ccccc3nc3ccccc23)cc1 | > 100 µM (inactive) | > 100 µM (inactive) | > 100 µM (inactive) | > 100 µM (inactive) | > 100 µM (inactive) | > 100 µM (inactive) | > 100 µM (inactive) | > 100 µM (inactive) | > 100 µM (inactive) | > 100 µM (inactive) | > 100 µM (inactive) | > 100 µM (inactive) | > 100 µM (inactive) | > 100 µM (inactive) | > 100 µM (inactive) | 30.4 µM (inactive) | > 100 µM (inactive) | > 100 µM (inactive) | > 100 µM (inactive)
10 | CC1(C)OC(CCC#N)CN1C(=O)OCc1ccccc1 (stereo unspecified) | > 100 µM (inactive) | > 100 µM (inactive) | > 100 µM (inactive) | > 100 µM (inactive) | 3.4 µM (inactive) | 28.9 µM (inactive) | > 100 µM (inactive) | > 100 µM (inactive) | > 100 µM (inactive) | > 100 µM (inactive) | > 100 µM (inactive) | > 100 µM (inactive) | > 100 µM (inactive) | > 100 µM (inactive) | > 100 µM (inactive) | > 100 µM (inactive) | > 100 µM (inactive) | > 100 µM (inactive) | > 100 µM (inactive)
11 | CS(=O)(=O)OCCN(CCOS(C)(=O)=O)c1ccc(/C=N/c2ccc(-c3csc(Cc4ccccc4)n3)cc2)c(Cl)c1 | 30.2 µM (inactive) | 27.4 µM (inactive) | 0.387 µM (active) | 31.7 µM (inactive) | 15.5 µM (inactive) | 28.6 µM (inactive) | 30.7 µM (inactive) | 28.2 µM (inactive) | 19.5 µM (inactive) | 3.83 µM (inactive) | 22.5 µM (inactive) | 2.65 µM (inactive) | 17.2 µM (inactive) | 23.7 µM (inactive) | 45.1 µM (inactive) | 26.4 µM (inactive) | 12.5 µM (inactive) | 31.8 µM (inactive) | 25.3 µM (inactive)
12 | O=C(/C=C/c1ccc(Cl)cc1)c1ccccc(=O)c1O | 1.22 µM (inactive) | 0.698 µM (active) | 0.461 µM (active) | 0.673 µM (active) | 2.86 µM (inactive) | 1.53 µM (inactive) | 0.881 µM (active) | 2.26 µM (inactive) | 0.957 µM (active) | 2.49 µM (inactive) | 4.08 µM (inactive) | 2.43 µM (inactive) | 0.798 µM (active) | 0.238 µM (active) | 3.43 µM (inactive) | 1.51 µM (inactive) | 1.17 µM (inactive) | 4.38 µM (inactive) | 2.87 µM (inactive)
13 | COc1cc2c(/C=C3/C(=O)Nc4cc(C)c(O)cc43)c(Cl)[nH]c2cc1C | 1.52 µM (inactive) | 3.69 µM (inactive) | 2.51 µM (inactive) | 4.31 µM (inactive) | 2.05 µM (inactive) | 1.85 µM (inactive) | 4.37 µM (inactive) | 3.9 µM (inactive) | 2.64 µM (inactive) | 6.18 µM (inactive) | 3.18 µM (inactive) | 1.8 µM (inactive) | 0.148 µM (active) | 0.376 µM (active) | 4.91 µM (inactive) | 4.31 µM (inactive) | 0.815 µM (active) | 2.83 µM (inactive) | 1.86 µM (inactive)
14 | Cc1nc2cn3c(c2c(=O)[nH]1)CCCCC3 | > 100 µM (inactive) | > 100 µM (inactive) | > 100 µM (inactive) | > 100 µM (inactive) | > 100 µM (inactive) | > 100 µM (inactive) | > 100 µM (inactive) | > 100 µM (inactive) | > 100 µM (inactive) | > 100 µM (inactive) | > 100 µM (inactive) | > 100 µM (inactive) | > 100 µM (inactive) | > 100 µM (inactive) | > 100 µM (inactive) | > 100 µM (inactive) | > 100 µM (inactive) | > 100 µM (inactive) | > 100 µM (inactive)
